Assay results: patent US9687522B2, “Methods of treating a subject afflicted with an autoimmune disease using predictive biomarkers of clinical response to glatiramer acetate therapy in multiple sclerosis” (TEVA PHARMACEUTICAL INDUSTRIES, LTD., priority 2010, dated 2017)

How the values were obtained:
IL-17 = IL-17 by ELISA in ex-vivo PBMC supernatant of GA-treated MS patients; type: cell-based, human
Description: (§1) Approximately 60 cc of blood was obtained by venipuncture from each MS patient pre-treatment and at successive time points during treatment (3 months, 6 months, 9-12 months and 24 months). PBMC were purified using Ficoll-Hypaque gradients as described in the supplier's protocol (ICN Biomedicals Inc. Ohio, USA). Samples from collaborating centers were sent via overnight FedEx™ delivery at room temperature and processed immediately upon arrival.
(§2) 2×10^5 PBMC/well were seeded in 96 well U-bottom micro titer plate in the absence of antigen (unstimulated condition) (US) or the presence of GA at 40 and 100 μg/ml (Teva Pharmaceutical Industries, Ltd., Israel), tetanus toxoid (TT 5 μg) obtained from UMASS (University of Mass, Worcester, Mass.). The latter was used as a control antigen. Supernatants were collected from cultured cells at days 1, 3 and 5 for various assays. After 5 days, 1 μCi ^3H-thymidine was added. Cells were harvested 18 hours later using TOMTEC cell harvester (TOMTEC, Hamden Conn.). Incorporated radioactivity was measured using a liquid Scintillation counter (Wallac MicroBeta Trilux, PerkinElmer, Boston, Mass.).
(§3) Interleukin-18 and caspase-1 levels were detected by human ELISA kits (Sandwich ELISA, Bender Nedaystems, USA). The sensitivity of the ELISA was 9.2 and 3.3 pg/ml for IL-18 and caspase-1 respectively. TGF-β, TNF-α, IL-4, IFN-γ, IL-17 and IL-10 levels were detected by human ELISA kits from ebioscience (San Diego Calif., 92121 USA). The sensitivity of the ebioscience kits were 60 pg/ml, 4 pg/ml, 2 pg/ml, 4 pg/ml, 4 pg/ml and 2 pg/ml respectively. BDNF was detected by the Human BDNF ELISA kit from Chemicon International (catalog #CYT306). The sensitivity of the BDNF ELISA was 7.8 pg/ml. […] Duplicates should be within 20% of the mean.

BDNF [1] = test: Serum BDNF by ELISA in GA-treated MS patients; type: in vivo, human; conditions: GA-R and GA-HR/NR, all treatment time points
Excerpt: as §1, §3

BDNF [2] = test: BDNF by ELISA in supernatant of GA-stimulated PBMC; type: cell-based, human
Description: as §1
as §2, with “Cells were harvested 18 hours later using TOMTEC cell harvester (TOMTEC, Hamden Conn.).” left out
Interleukin-18 and caspase-1 levels were detected by human ELISA kits (Sandwich ELISA, Bender Nedaystems, USA). […] TGF-β, TNF-α, IL-4, IFN-γ, IL-17 and IL-10 levels were detected by human ELISA kits from ebioscience (San Diego Calif., 92121 USA). […] BDNF was detected by the Human BDNF ELISA kit from Chemicon International (catalog #CYT306). […]

RRMS subjects = conditions: cited from earlier work
[3] = system: class II MHC molecules of mouse and human origin; conditions: cited from earlier work
[4] = system: relapsing-remitting MS (RR-MS) patients; test: Prospective 2-year study of GA-treated RR-MS patients: ARR and EDSS; type: in vivo, human
Description: This is a prospective study in which sixty-two relapsing-remitting MS (RR-MS) patients treated with GA were classified clinically as GA-R (N=42) or GA-HR/NR (N=20) after 2 years of treatment. Cytokine levels, brain-derived neurotrophic factor (BDNF) levels, and T-cell proliferation to GA were analyzed at baseline, 3, 6, 9-12 and 24 months and assessed for their predictive value of clinical response after 2 years of treatment.
Sixty-two patients diagnosed with definite RR-MS (relapsing-remitting MS) according to the McDonald criteria (33) were included in the study. Following recruitment, the patients were treated with GA for at least 2 years. Subjects were closely followed up at the University of Medicine and Dentistry New Jersey (UMDNJ)-Robert Wood Johnson Medical School, University of Maryland Center for MS, the Gimbel MS Center, Teaneck, N.J. and the Carolina Medical Center-MS Center, Charlotte, N.C. Fifty patients were females with a mean age of 41±10.3 years and 12 were males with a mean age of 39.0±11.9 years. Patients had at least one relapse during the year prior to initiation of GA therapy (Table 2). After at least 2 years on GA therapy, patients were classified as GA-R (n=42) or GA-HR/NR (n=20) based on a clinical criteria more stringent than those recently reported in the literature. (34) A responder (R) is a patient with an annual relapse rate (ARR)<0.5 and no evidence of disease progression as measured by EDSS (expanded disability status scale). A hypo/non-responder (HR/NR) is a patient with an ARR>0.5 and/or with progression in the EDSS of at least 1 point sustained for 6 months (Table 3).
The patients were classified as GA-responders or hypo/non-responders after being treated with GA for at least 24 months, based on their ARR and progression in disability while on treatment (Tables 1 and 3). The mean disease duration was 8.3±6.1 years for the GA-R group and 12.2±8.2 years for GA-HR/NR group. The mean treatment duration was 26.4±6.6 months for the GA-R group and 26.1±5.9 months for the GA-HR/NR group.

[5] = GA 20 mg, largest controlled study

Glatiramer acetate [GA]
Supernatant IL-17 level (IL-17; HR/NR, 3 mo): 160 ± 25 pg/mL | Supernatant IL-17 level (IL-17; HR/NR, 6 mo): 146 ± 25 pg/mL | Supernatant IL-17 level (IL-17; HR/NR, 9-12 mo): 129 ± 7.3 pg/mL | Supernatant IL-17 level (IL-17; HR/NR, 24 mo): 179 ± 21 pg/mL | Supernatant IL-17 level (IL-17; HR/NR, Pre-Rx): 178 ± 25 pg/mL | Supernatant IL-17 level (IL-17; R, 3 mo): 184 ± 40 pg/mL | Supernatant IL-17 level (IL-17; R, 6 mo): 60 ± 35 pg/mL | Supernatant IL-17 level (IL-17; R, 9-12 mo): 134 ± 12 pg/mL | Supernatant IL-17 level (IL-17; R, 24 mo): 167 ± 18 pg/mL | Supernatant IL-17 level (IL-17; R, Pre-Rx): 176 ± 31 pg/mL | Serum BDNF levels, change during GA treatment (BDNF [1]): did not show significant changes during treatment from baseline in either group | BDNF production with GA used as ex-vivo stimulus (BDNF [2]; GA versus TT as stimulus of PBMC): slightly higher level compared to TT | supernatant BDNF levels from GA-stimulated PBMCs (BDNF [2]; GA-R group, 3 months, p=0.01, not in the GA HR/NR group): significant increase at 3 months during treatment compared to baseline | median cumulative number of Gd-enhancing lesions (RRMS subjects; 20 mg group, over 9 months of treatment): 11 lesions | relapse rate (RRMS subjects; [5]): 1.34 | relapse rate reduction versus placebo (RRMS subjects; [5]): 32% | tolerability (RRMS subjects; daily standard dose of 20 mg): generally well tolerated | binding to class II MHC molecules [3]: binds promiscuously and with high affinity | Mean ARR ([4]; GA-HR/NR, 24 mo Rx): 0.75 ± 0.50 | Mean EDSS ([4]; GA-HR/NR, 24 mo Rx): 3.2 ± 1.37 | Mean ARR ([4]; GA-HR/NR, Pre-Rx): 0.80 ± 0.49 | Mean EDSS ([4]; GA-HR/NR, Pre-Rx): 1.95 ± 0.95 | increase in the EDSS ([4]; GA-HR/NR, during treatment): 1.12 point | reduction in the ARR ([4]; GA-HR/NR, during treatment): 6.25% | Mean ARR ([4]; GA-R, 24 mo Rx): 0.14 ± 0.25 | Mean EDSS ([4]; GA-R, 24 mo Rx): 1.57 ± 1.0 | Mean ARR ([4]; GA-R, Pre-Rx): 0.67 ± 0.46 | Mean EDSS ([4]; GA-R, Pre-Rx): 2.18 ± 1.08 | decrease in the EDSS ([4]; GA-R, during treatment): 0.61 point | reduction in the ARR ([4]; GA-R, during treatment): 79%
